In publication PMC9356275, “A quantitative high-throughput screen identifies compounds that lower expression of the SCA2-and ALS-associated gene ATXN2” (The Journal of Biological Chemistry, 2022):
Where a name gives a salt, the structure may show the parent alone. Read-outs that look alike come from different tables or passages of the source.

Assays:
Type in all cases: cell-based, human
[1] = test system: ATXN2-luc; assay: MSSR hit retest: ATXN2-luc luciferase assay, average of H2 and S1 cells (1 and 10 uM); conditions: Homo sapiens; for activity at 1 µM: read-out: H2&S1 ave luc 1uM; for activity at 10 µM: head line r3 10uM; for activity at 10 µM / activity: read-out: H2&S1 ave luc 10uM
Source text: (§1) Supplement mmc2.xlsx, sheet "43 annotated compounds"

[2] = test system: ATXN2-luc; assay: MSSR pilot screen: ATXN2-luc luciferase assay (Bright-Glo) in H2 cells, single 10 μM dose; conditions: for SD from mean (ATXN2-luc, Z-score): H2 cells, single dose (title: 10 μM compound), overnight; for ¦Score/1SD¦: absolute score divided by 1SD (0.891 or 0.9)
[3] = test system: H2 and S1 cells; assay: Paired MTT viability assay, average of H2 and S1 cells (1 and 10 uM); conditions: Homo sapiens
Source text: as §1

[4] = 1 uM compound, average of H2 and S1 cells
[5] = pilot screen at 10 µM compound, H2 cells expressing ATXN2-luc
[6] = 1 uM compound, read-out: H2&S1 ave MTT 1uM
[7] = 10 uM compound, read-out: H2&S1 ave MTT 10uM
[8] = pilot screen, H2 cells expressing ATXN2-luc, single dose printed as 10 μM compound
[9] = read-out: H2&S1 ave MTT 1uM, 1 uM compound
[10] = read-out: H2&S1 ave MTT 10uM, 10 uM compound

SMILES | activity at 1 µM [1, 4] [%] | activity at 10 µM ([1]; average of H2 and S1 cells) [%] | SD from mean (ATXN2-luc, Z-score) [2] [SD] | SD from mean (pilot screen) ([2]; pilot screen) [SD] | SD from mean (pilot screen) [2, 5] | ¦Score/1SD¦ ([2]; pilot screen) | viability at 1 µM [3, 6] [%] | viability at 10 µM [3, 7] [%] | SD from mean (pilot screen) [2, 8] | activity at 1 µM [1] [%] | activity [1] [%] | viability at 1 µM [3, 9] [%] | viability at 10 µM [3, 10] [%]
C[C@H]1O[C@@H](O[C@H]2[C@@H](O)C[C@H](O[C@H]3[C@@H](O)C[C@H](O[C@H]4CC[C@@]5(C)[C@H](CC[C@@H]6[C@@H]5CC[C@]5(C)[C@@H](C7=CC(=O)OC7)[C@@H](O)C[C@]65O)C4)O[C@@H]3C)O[C@@H]2C)C[C@H](O)[C@@H]1O [GITOXIN] | 21 | 12 | -4.086 | -4.086 | -4.086 | 4.54 | 28.7 | 40.3 | – | – | – | – | –
COC(=O)C1=C(C)NC(C)=C(C(=O)OCCN(C)Cc2ccccc2)C1c1cccc([N+](=O)[O-])c1 (stereo not drawn) [NICARDIPINE] | 112 | 61 | -2.782 | -2.782 | – | 3.12 | 140 | 87 | -2.782 | – | – | – | –
CC[C@H]1CN2CCc3cc(OC)c(OC)cc3[C@@H]2C[C@@H]1C[C@H]1NCCc2cc(OC)c(OC)cc21 [Emetine dihydrochloride] | 18 | 19 | -4.840 | -4.840 | -4.840 | 5.43 | 59.7 | 58.1 | – | – | – | – | –
CC(=O)Oc1cccc(O)c1 [RESORCINOL MONOACETATE] | 120 | 4.6 | -6.242 | -6.242 | -6.242 | 6.94 | 115 | 19.9 | – | – | – | – | –
C[C@]12CC[C@H]3[C@@H](CC[C@]4(O)C[C@@H](O)CC[C@]34C=O)[C@@]1(O)CC[C@@H]2C1=CC(=O)OC1 [STROPHANTHIDIN] | – | – | – | -4.451 | -4.451 | 4.95 | – | – | – | 16 | 15 | 40.1 | 45.5
C[C@]12CC[C@H](O)C[C@H]1CC[C@@H]1[C@@H]2[C@H](O)C[C@]2(C)[C@@H](C3=CC(=O)OC3)CC[C@]12O [SARMENTOGENIN] | – | – | -3.539 | -3.539 | – | 3.93 | – | – | -3.539 | 53 | 24 | 45.8 | 41.2
C[C@]12CC[C@H](O)C[C@H]1CC[C@@H]1[C@@H]2C[C@@H](O)[C@]2(C)[C@@H](C3=CC(=O)OC3)CC[C@]12O [Digoxigenin] | 90 | 22 | -3.264 | -3.264 | – | 3.66 | 60.4 | 31.6 | -3.264 | – | – | – | –
CC(=O)O[C@H]1CC[C@@]2(C)[C@H](CC[C@@H]3[C@@H]2CC[C@]2(C)[C@@H](C4=CC(=O)OC4)[C@@H](OC(C)=O)C[C@]32O)C1 [GITOXIGENIN DIACETATE] | – | – | -4.261 | -4.261 | -4.261 | 4.73 | – | – | – | 27 | 21 | 39.7 | 40.3
